Reference: patent publication US11872216B2, “Pharmaceutical formulation comprising cineole and amoxicillin” (priority 2016, dated 2024)
Values joined by “and” are separate entries in the source; they are usually repeats but may differ in a detail not shown here. Equal values may be shown once.

Tests used:
[1] = system: amoxicillin-sensitive bacterial strain of Escherichia coli (ATCC 8739); assay: Enzymatic test in agar medium (inhibition halos of disks with or without β-lactamase and cineole); assay type: cell-based
Description: (§1) This study is based on an enzymatic test first placing AMX combined with cineole in contact with ß-lactamases. The antibacterial activity of this antibiotic was then checked on an AMX-sensitive strain of Escherichia coli.
(§2) An amoxicillin-sensitive bacterial strain of Escherichia coli (ATCC 8739) was supplied by the national hygiene institute (INH-Rabat).
(§3) For each test performed, precultures of this E. coli strain of 24 h at 37° C. were prepared from this bacterial strain (frozen beforehand at −20° C.). From these precultures, bacterial inocula of 3.3×10^6 CFU/ml were prepared, adjusting the optical density to 540 nm.
Disks charged with antibiotics (diameter Ø=6 mm) were used for the enzymatic test in agar medium (AMX: amoxicillin and AMC: amoxicillin+clavulanic acid). They were supplied by the national hygiene institute (INH-Rabat). The AMX used for the enzymatic test in liquid medium was supplied by Sigma Aldrich (France).
The cineole was supplied by Sigma Aldrich (France). […]
Starting with a 24 h sensitive preculture of E. coli, eighteen Petri dishes of the agar MH medium were inoculated by surface plating. […] 10 μl of β-lactamase at 0.03 U/ml and 10 μl of cineole at 0.002 μl/ml were added to the surface of each of these three disks. • After incubation of the eight Petri dishes for 18 h at 37° C., the diameters of the inhibition halos were measured.

[2] = system: amoxicillin-sensitive bacterial strain of Escherichia coli (ATCC 8739); assay: Enzymatic test in liquid medium (growth inhibition with or without β-lactamase and cineole); assay type: cell-based; details: for % inhibition of growth: AMX 6 μg/ml, cineole 0.002 μl/ml, β-lactamase 0.03 U/ml where present, 22 hours at 30° C.
Description: as §1, §2, §3
The ß-lactamase powder was supplied by Sigma Aldrich (France). It was dissolved according to the supplier's instructions, at 10 mg/ml in 0.1 M of Tris HCl at pH 7, containing 0.1% of gelatin. The ß-lactamase (0.03 U/ml) thus prepared was stored between 2 and 8° C.
The MIC of AMX at 100% with respect to the sensitive strain of Escherichia coli, determined via the microdilution method described previously, is of the order of 6 μg/ml.
Starting with a 24 h preculture of the sensitive strain of E. coli, bacterial inocula at 3.3×10^6 CFU/ml were prepared, adjusting the optical density to 540 nm.
Five control tubes and one test tube were prepared as described in table 6 (cf. below).
Tube no 1 corresponds to the sterility control of the medium. Tube no 2 corresponds to the positive control of viability of the bacterial strain. Tube no 3 corresponds to the control of sensitivity of the strain to AMX. Tube no 4 corresponds to the control of non-inhibition of bacterial growth with an infra-inhibitory concentration of cineole. Tube no 5 corresponds to the control of degradation of AMX in the presence of ß-lactamase. Tube no 6 corresponds to the test of the effect of cineole on amoxicillin inhibition by the β-lactamases.
The OD was measured at time t=0, and after 22 hours of incubation at 30° C. The percentage of inhibition was then calculated according to the formula described previously:
With ODT0=OD of the test tube at time t=0, ODT22=OD of the test tube after 22 h of incubation, ODC0=OD of the positive control tube at time t=0, ODC22=OD of the positive control tube after 22 h of incubation.

MIC ([2]; ATCC8739, sensitive strain of Escherichia coli, microdilution, read-out: MIC of AMX at 100%) | SMILES | Diameters of the halos ([1]; disks AMX 20 μg, AMC 30 μg, β-lactamase 0.03 U/ml, cineole 0.002 μl/ml where added, 18 h at 37° C., 6 mm is the diameter of the disk, listed as AMX) | % inhibition of growth [2] | infra-inhibitory concentration (highest concentration without any inhibition) ([1]; microdilution method) | % inhibition of growth ([2]; listed as Cineole)
~6 µg/mL | CC1(C)S[C@@H]2[C@H](NC(=O)[C@H](N)c3ccc(O)cc3)C(=O)N2[C@H]1C(=O)O [amoxicillin, Amoxicillin] | 15 mm and 15 ± 1.0 mm | 100% ± 0.0 | – | –
– | CC12CCC(CC1)C(C)(C)O2 [cineole, 1,8-cineole] | – | no growth inhibition | ~0.002 μl/ml | 0% ± 0.0
